# From patent publication US20080241215A1, “LOCAL VASCULAR DELIVERY OF PROBUCOL ALONE OR IN COMBINATION WITH SIROLIMUS TO TREAT RESTENOSIS, VULNERABLE PLAQUE, AAA AND STROKE” (priority 2007, published 2008)
# Legend:
# [1] = system: patients undergoing coronary angioplasty; assay: MVP randomized clinical trial (angiographic and clinical endpoints); type: in vivo, human
# Text: In addition, the invention enables the skilled practitioner to use probucol in conjunction with other percutaneous coronary interventions such as stenting if it is deemed appropriate. The present invention concerns the IVUS substudy from the MVP restenosis trial. MVP was a double-blind placebo-controlled randomized clinical trial with four study groups. The protocol was approved by the Montreal Heart Institute institutional review board. The MVP study design, inclusion and exclusion criteria have been previously described (N Engl J Med 1997; 365-372). Briefly, patients referred for elective coronary angioplasty were evaluated at least 30 days prior to their scheduled procedure. Eligible patients were asked to provide written informed consent. Patients were eligible if they were scheduled to undergo standard balloon angioplasty on at least one native coronary artery and had at least one de novo target lesion with luminal narrowing of fifty percent or more by caliper measurements. Beginning thirty days prior to scheduled angioplasty, patients were randomly assigned to receive either probucol alone, multivitamins alone, the combination of probucol and multivitamins, or placebo. Probucol 500 mg or matched placebo was administered twice daily. The multivitamin complex, consisting of vitamin E 700 IU, vitamin C 500 mg and beta-carotene 30,000 IU, or matched placebo was also administered in one tablet twice daily. […] Balloon angioplasty was performed according to standard techniques. […] The sequence of contrast injections with the exact degree of angulation was recorded and used for every angiogram. Coronary arteriograms (pre-, post-procedure, and final follow-up) were analyzed together using the Coronary Measurement System (CMS), as previously reported. Patient follow-up included clinical evaluation, exercise treadmill testing, blood chemistry, pill count and drug level measurements, and dietary assessment and intervention. Patients were readmitted for follow-up coronary angiography at five to seven months. Patients in whom arteriography was performed for clinical reasons before the fifth month returned for repeat angiographic examination at five to seven months if no definite angiographic restenosis was present on at least one dilated site. During follow-up, patients with recurrence or exacerbation of anginal symptoms were treated with medical therapy or revascularization procedures (reangioplasty or Coronary Bypass Surgery) as clinically indicated. Patients with angiographic restenosis (lesion>50%. at follow-up) without clinical evidence of ischemia were not subjected to further interventional procedures.
# [2] = system: coronary arteries (angioplasty site); assay: IVUS substudy of the MVP restenosis trial; type: in vivo, human; details: for EEM area / Lumen area / Wall area: per segment, mean ± SD
# Method: The present invention concerns the IVUS substudy from the MVP restenosis trial. MVP was a double-blind placebo-controlled randomized clinical trial with four study groups. The protocol was approved by the Montreal Heart Institute institutional review board. The MVP study design, inclusion and exclusion criteria have been previously described (N Engl J Med 1997; 365-372). Briefly, patients referred for elective coronary angioplasty were evaluated at least 30 days prior to their scheduled procedure. Eligible patients were asked to provide written informed consent. Patients were eligible if they were scheduled to undergo standard balloon angioplasty on at least one native coronary artery and had at least one de novo target lesion with luminal narrowing of fifty percent or more by caliper measurements.
# Beginning thirty days prior to scheduled angioplasty, patients were randomly assigned to receive either probucol alone, multivitamins alone, the combination of probucol and multivitamins, or placebo. Probucol 500 mg or matched placebo was administered twice daily. The multivitamin complex, consisting of vitamin E 700 IU, vitamin C 500 mg and beta-carotene 30,000 IU, or matched placebo was also administered in one tablet twice daily. All patients received an extra dose of probucol 1000 mg and/or vitamin E 2000 IU and/or matched placebos twelve hours before angioplasty, according to randomization assignment. […] All patients received aspirin 325 mg daily started at least thirty days before procedure and continued for the study period. Balloon angioplasty was performed according to standard techniques. Intracoronary nitroglycerin (0.3 mg) was given for each target artery for both pre- and post-dilatation angiography and at follow-up. The sequence of contrast injections with the exact degree of angulation was recorded and used for every angiogram. Coronary arteriograms (pre-, post-procedure, and final follow-up) were analyzed together using the Coronary Measurement System (CMS), as previously reported. Patient follow-up included clinical evaluation, exercise treadmill testing, blood chemistry, pill count and drug level measurements, and dietary assessment and intervention. Patients were readmitted for follow-up coronary angiography at five to seven months. Patients in whom arteriography was performed for clinical reasons before the fifth month returned for repeat angiographic examination at five to seven months if no definite angiographic restenosis was present on at least one dilated site. During follow-up, patients with recurrence or exacerbation of anginal symptoms were treated with medical therapy or revascularization procedures (reangioplasty or Coronary Bypass Surgery) as clinically indicated. Patients with angiographic restenosis (lesion>50%. at follow-up) without clinical evidence of ischemia were not subjected to further interventional procedures.
# IVUS examinations were performed using 30 MHZ, 3.5 French mechanical (1800 rpm) ultrasound catheters (Boston Scientific, Natick, Mass.) and a dedicated imaging console (Hewlett Packard, Andover, Mass.) (Curr Opin Cardiol 1994; 9:627-633). In six patients, both examinations were performed using 20 MHZ, 3.5 French 64-element IVUS catheters (Endosonics, Pleasanton, Calif.). IVUS studies were first performed after coronary angioplasty (after final balloon inflation) and then after follow-up angiography (before any subsequent intervention) and were always preceded by administration of intracoronary nitroglycerin (0.3 mg). IVUS imaging was monitored by an experienced cardiologist, but the angioplasty operator was blinded to ultrasound results to avoid altering standard balloon angioplasty practice. The IVUS catheter was advanced distal to the dilated site to an easily recognizable landmark, most often a side branch, which was noted and used for follow-up IVUS examination. One angiographic view was recorded on videotape before beginning pullback of the IVUS catheter. […]
# LDL = LDL peroxidation lag phase ex vivo (diene conjugates after addition of copper ions); type: biochemical, human; details: treatment for one month; compared with vitamins alone or the combination of probucol and vitamins; preliminary results
# [3] = probucol given alone, compared to placebo
# [4] = Follow-up Post PTCA (follow-up minus after angioplasty), listed as Probucol Alone
# [5] = Follow-up Post PTCA, efficacy analysis in compliant patients
# [6] = Follow-up, listed as Probucol Alone
smiles,measurement,setting,value
"CC(C)(Sc1cc(C(C)(C)C)c(O)c(C(C)(C)C)c1)Sc1cc(C(C)(C)C)c(O)c(C(C)(C)C)c1 [probucol, 4,4′-([1-methylethylidene)bis(thio)]bis-[2,6-bis(1,1-dimethylethyl)phenol]]",patients with restenosis,[1]; MVP study,over twenty
same,reduction in the need for repeat angioplasty,"[1]; probucol given alone, at 6 month, compared to placebo",fifty-eight
same,reduction in angiographic lumen loss,[1]; [3],sixty-eight
same,reduction in restenosis rate per segment,[1]; [3],forty-seven
same,EEM area,[2]; After Angioplasty,12.20 ± 4.66 mm^2
same,Lumen area,[2]; After Angioplasty,4.62 ± 1.59 mm^2
same,Wall area,[2]; After Angioplasty,7.57 ± 3.98 mm^2
same,"Lumen area, change",[2]; Follow-up Post PTCA (follow-up minus after angioplasty),−0.15 ± 1.70 mm^2
same,"EEM area, change",[2]; [4],1.74 ± 1.80 mm^2
same,"Wall area, change",[2]; [4],1.89 ± 1.87 mm^2
same,"EEM area, change","[2]; Follow-up Post PTCA (follow-up minus after angioplasty), listed as probucol alone",1.74 mm^2
same,"EEM area, change",[2]; [5],1.74 ± 1.80 mm^2
same,"Lumen area, change",[2]; [5],−0.15 ± 1.70 mm^2
same,"Wall area, change",[2]; [5],1.89 ± 1.87 mm^2
same,EEM area,[2]; [6],13.93 ± 4.74 mm^2
same,Lumen area,[2]; [6],4.47 ± 1.93 mm^2
same,Wall area,[2]; [6],9.46 ± 4.36 mm^2
same,patients with an increase in EEM area of at least 1 mm^2 at follow-up,[2]; in vivo,72.0%
same,increase in vessel enlargement,[2]; probucol only compared with placebo,seven hundred-thirty
same,protection against LDL oxidation (lag phase for LDL peroxidation),LDL,significantly greater protection against LDL oxidation
